Reference: patent US8889638B2, “Stimulus-triggered prodrugs” (The Regents of the University of California, priority 2010, dated 2014)

Legend:
[1] = Cleavage of sulfonate ester PZBGs and proMMPi by H2O2 (UV-Vis, rate constant, HPLC); format: physicochemical; settings: 50 μM in HEPES buffer, room temperature
Experimental: (§1) Absorption spectra of compounds were taken on a Perkin-Elmer Lambda 25 UV-Visible Spectrophotometer. To a 1.0 mL solution at 0.05 mM concentration of each compound in HEPES buffer (50 mM, pH 7.5) was added H2O2 (10 μL, 0.09M in HEPES) and absorption spectra were monitored over time at room temperature. Hydrolytic stability was measured by monitoring each sample in HEPES buffer over a 24 hour time period.
The pseudo-first order rate constant was calculated following literature procedure. To a 1.0 mL solution of compounds PZBG-1a, PZBG-1b, PZBG-1e, PZBG-5a, and PZBG-5b in HEPES buffer at 50 μM was added H2O2 to final concentrations of 150 μM, 250 μM, 500 μM, 750 μM, and 900 μM. Spectra were monitored over 15-30 min at room temperature with at least 50 spectra recorded at every concentration. The change in absorption at 298 nm for PZBG-1a and PZBG-1b were monitored, while the change in absorption at 288 nm was recorded for PZBG-1e, and 310 nm for PZBG-5a and PZBG-5b. The rate constant (kobs) was found from the linear slope of ln [(A−AZBG)/(Ao−AZBG)] vs. time where AZBG is the absorbance of a 50 μM sample of the ZBG or full-length inhibitor and AO is the initial absorbance of PZBG-1a, PZBG-1b, PZBG-1e, PZBG-5a, and PZBG-5b. The rate of conversion was determined from the slope of the line of kobs vs. [H2O2].
Analytical HPLC was performed on a HP Series 1050 system equipped with a Vydac® C18 reverse phase column (218 TP, 250×4.6 mm, 5 μm). […] Starting with 95% A and 5% B, an […] gradient was run for 15 min to a final solvent mixture of 5% A and 95% B, which was held for 5 min before ramping back down to 95% A and 5% B in 2 min and holding for an additional 4 min. Compounds ZBG-1a and PZBG-1a were prepared in HEPES buffer (50 mM, pH 7.5) at a concentration of 1 mM and retention times were determined. To evaluate cleavage by H2O2, a 1 mM solution of PZBG-1a in HEPES buffer was reacted with a 20-fold excess of H2O2 before analyzing under identical HPLC conditions as before.

[2] = Hydrolytic stability of sulfonate esters in HEPES buffer; format: physicochemical
Experimental: as §1

[3] = molecular target: T1, MMP-12 (catalytic domain, human recombinant) (Homo sapiens, UniProt P39900); experiment: MMP-12 fluorescence-based inhibition assay with and without H2O2 (sulfonate ester proMMPi); format: biochemical; design: MMP-12 (catalytic domain, human recombinant); purchased Enzo Life Sciences; settings: 50 nM; for inhibition at 0.05 µM: 30 min of incubation
Experimental: MMP-12 (catalytic domain, human recombinant) was purchased from Enzo Life Sciences. The assays were carried out in a 96-well plate using a Bio-Tex Flx 800 plate reader. The activity of MMP-12 was evaluated after a 30 min incubation in the presence of H2O2 and proMMPi. The concentration of proMMPi used was selected to be close to the IC50 value of the parent full-length inhibitors, 1,2-HOPO-2 and PY-2[38]. In each well, 1 μL of proinhibitors PZBG-5a, PZGB-5b, and PZBG-6a and the inhibitors 1,2-HOPO-2 and PY-2 in DMSO (5 μM) were incubated for 30 min at 37° C. with 20 μL of MMP-12 (0.35 U/mL), 10 μL H2O2 (1 mM in HEPES buffer, pH 7.5), and MMP assay buffer (50 mM HEPES, 10 mM CaCl2, 0.10% Brij-35, pH 7.5) for a total volume of 99 μL. […] The reaction was initiated by the addition of 1 μL (400 μM) of the fluorescent substrate (Mca-Pro-Leu-Gly-Leu-Dpa-Ala-Arg-NH2 where Mca=(7-methoxycoumarin-4-yl)-acetyl and Dpa=N-3-(2,4-dinitrophenyl)-L-α-β-diaminopropionyl)) after the 30 minute incubation period and kinetic activity was measured every minute for 20 minutes with excitation and emission wavelengths at 335 nm and 405 nm, respectively. Enzyme activity with inhibitor was calculated with respect to the control experiment—no inhibitor present. Measurements were performed in duplicate in two independent experiments.

[4] = molecular target: T2, MMP-9 (catalytic domain, human, recombinant) (Homo sapiens, UniProt P14780); experiment: MMP-9 inhibition assay of boronic ester proinhibitors (IC50; activation with H2O2); format: biochemical; settings: for inhibition of MMP-9 with no hydrogen peroxide present / inhibition at 10 µM: 10 μM; for inhibition at 10 µM: 1 h of activation, read-out: inhibition of MMP-9 after activation with 100 μM H2O2; for IC50: proinhibitors without H2O2, read-out: IC50 against MMP-9
T2 construct: MMP-9 (catalytic domain, human, recombinant); purchased BIOMOL International
Experimental: (§2) MMP-9 (catalytic domain, human, recombinant) and MMP-12 (catalytic domain, human, recombinant) were purchased from Enzo Life Sciences. The assays were carried out in 96-well plates using a Bio-Tek Flx 800 plate reader. IC50 values were obtained for proinhibitors B17 and B18 against MMP-9 and MMP-12. Serial dilutions of the compounds dissolved in DMSO were incubated at 37° C. for 30 minutes with 20 μL of the appropriate MMP (0.45 U/mL for MMP-9 and 0.35 U/mL for MMP-12) in MMP assay buffer (50 mM HEPES, 10 mM CaCl2, 0.10% Brij-35, pH 7.5), for a total volume of 99 pt. The reaction was initiated by the addition of 1 μL (400 μM) of the fluorescent substrate (Mca-Pro-Leu-Gly-Leu-Dpa-Ala-Arg-NH2 where Mca=(7-methoxycoumarin-4-yl)-acetyl and Dpa=N-3-(2,4-dinitrophenyl)-L-α-β-diaminopropionyl)) and kinetic activity was measured every minute for 20 min with excitation and emission wavelengths at 335 nm and 405 nm, respectively. Measurements were performed in duplicate. The percent inhibition was plotted versus the inhibitor concentration. A linear fit of the data for each experiment gives the IC50 value of the inhibitor where y=50%.
(§3) MMP activity in the presence of H2O2 was evaluated with both MMP-9 and MMP-12 with 1 h of activation at concentrations close to their IC50 values. Using the calculated rate constants for the protected ZBGs B19 and B20, it was determined that 1 h of activation time for each proinhibitor with 100 μM H2O2 will provide enough 1,2-HOPO-2 or PY-2 to inhibit the MMPs at 50%. For example, for proinhibitor B17 with MMP-9, if the rate=k[B17][H2O2] and k=3.9 M^−1s^−1, [B17]=10 μM, and [H2O2]=100 μM, the rate of conversion would be 3.9×10^−9 M/s. Therefore, activation for 1 h would release 14 μM 1,2-HOPO-2, or enough inhibitor to provide approximately 50% inhibition of MMP-9 (IC50 value for 1,2-HOPO-2 against MMP-9 is ˜6 μM).
(§4) In each well, 1 μL of proinhibitors B17 and B18 and the inhibitors 1,2-HOPO-2 and PY-2 in DMSO (1 mM for MMP-9 or 5 μM for MMP-12) were incubated for 1 h at 37° C. with 10 μL H2O2 (1 mM in HEPES buffer, pH 7.5) in MMP assay buffer for a total volume of 79 pt. […] After activation of the proinhibitors, 20 μL of the appropriate MMP (0.45 U/mL for MMP-9 and 0.35 U/mL for MMP-12) was added and incubated for an additional 30 min. The reaction was initiated by the addition of 1 pt (400 μM) of the fluorescent substrate and kinetic activity was measured every minute for 20 min with excitation and emission wavelengths at 335 nm and 405 nm, respectively. Enzyme activity with inhibitor was calculated with respect to the control experiment (no inhibitor present). Measurements were performed in duplicate in two independent experiments.

[5] = molecular target: T1, MMP-12 (catalytic domain, human recombinant); experiment: MMP-12 inhibition assay of boronic ester proinhibitors (IC50; activation with H2O2); format: biochemical; design: MMP-12 (catalytic domain, human, recombinant); purchased Enzo Life Sciences; settings: for inhibition of MMP-12 with no hydrogen peroxide present / inhibition at 0.05 µM: 50 nM; for inhibition at 0.05 µM: 1 h of activation, read-out: inhibition of MMP-12 after activation with 100 μM H2O2; for IC50 against MMP-12: proinhibitors without H2O2
Experimental: as §2, §3, §4

[6] = read-out: inhibition of MMP-12 after treatment with 100 μM H2O2
[7] = read-out: inhibition of MMP-12 before treatment with H2O2

T1 sequence (P39900 106-263 limits assumed): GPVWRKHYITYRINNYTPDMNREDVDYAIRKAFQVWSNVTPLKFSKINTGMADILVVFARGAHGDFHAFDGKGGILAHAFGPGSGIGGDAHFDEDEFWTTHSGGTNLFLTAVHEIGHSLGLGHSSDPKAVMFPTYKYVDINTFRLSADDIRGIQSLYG
T2 sequence (P14780 107-444 limits assumed): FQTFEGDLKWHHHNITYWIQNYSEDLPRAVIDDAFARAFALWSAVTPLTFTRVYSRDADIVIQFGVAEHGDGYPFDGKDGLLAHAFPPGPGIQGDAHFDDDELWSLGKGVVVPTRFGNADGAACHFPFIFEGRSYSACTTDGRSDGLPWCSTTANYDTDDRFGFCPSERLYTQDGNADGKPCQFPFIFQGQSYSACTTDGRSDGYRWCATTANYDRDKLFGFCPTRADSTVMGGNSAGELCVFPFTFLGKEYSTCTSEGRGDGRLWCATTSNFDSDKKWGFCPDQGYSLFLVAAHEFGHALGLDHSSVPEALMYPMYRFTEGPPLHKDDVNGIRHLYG

O=C(NCc1ccc(-c2ccccc2)cc1)c1cccc(=O)n1OS(=O)(=O)c1ccccc1 [PZBG-5a, 6-(([1,1′-Biphenyl]-4-ylmethyl)carbamoyl)-2-Oxopyridin-1(2H)-yl benzenesulfonate]
pseudo-first order rate constant with an excess of H2O2 (full-length proMMPi) [1]: 0.3 M⁻¹ s⁻¹
hydrolysis in buffer alone ([2]; after 9 h): ~50%
inhibition at 0.05 µM [3, 6]: ~30%
inhibition at 0.05 µM [3, 7]: ~20%

CC1(C)OB(c2ccc(COc3c(C(=O)NCc4ccc(-c5ccccc5)cc4)occc3=O)cc2)OC1(C)C [Compound B18, N-([1,1′-biphenyl]-4-ylmethyl)-4-oxo-3-((4-(4,4,5,5-tetramethyl-1,3,2-dioxaborolan-2-yl)benzyl)oxy)-4H-pyran-2-carboxamide]
inhibition of MMP-9 with no hydrogen peroxide present [4]: little inhibition
inhibition at 10 µM [4]: 50%
IC50 [4]: > 1000 µM
inhibition of MMP-12 with no hydrogen peroxide present [5]: little inhibition
inhibition at 0.05 µM [5]: 50%
IC50 against MMP-12 [5]: micromolar range

Cc1ccc(S(=O)(=O)On2ccccc2=O)cc1 [PZBG-1b, 2-Oxopyridin-1(2H)-yl-4-methylbenzenesulfonate]
pseudo-first order rate constant with an excess of H2O2 [1]: 0.3 M⁻¹ s⁻¹
cleavage in buffer ([2]; in 24 h): ~30%

CC1(C)OB(c2ccc(COn3c(C(=O)NCc4ccc(-c5ccccc5)cc4)cccc3=O)cc2)OC1(C)C [Compound B17, N-([1,1′-biphenyl]-4-ylmethyl)-6-oxo-1-((4-(4,4,5,5-tetramethyl-1,3,2-dioxaborolan-2-yl)benzyl)oxy)-1,6-dihydropyridine-2-carboxamide]
inhibition of MMP-9 with no hydrogen peroxide present [4]: little inhibition
inhibition at 10 µM [4]: 50%
IC50 [4]: > 1000 µM
inhibition of MMP-12 with no hydrogen peroxide present [5]: little inhibition
inhibition at 0.05 µM [5]: 50%
IC50 against MMP-12 [5]: micromolar range

O=c1ccccn1OS(=O)(=O)c1ccccc1 [PZBG-1a, 2-Oxopyridin-1(2H)-yl benzenesulfonate]
pseudo-first order rate constant with an excess of H2O2 [1]: 0.7 M⁻¹ s⁻¹
cleavage in buffer ([2]; in 6 h): ~50%

O=C(NCc1ccc(-c2ccccc2)cc1)c1occc(=O)c1OS(=O)(=O)c1ccccc1 [PZBG-6a, 2-(([1,1′-Biphenyl]-4-ylmethyl)carbamoyl)-4-oxo-4H-pyran-3-yl benzenesulfonate]
change in inhibitory activity against MMP-12 upon exposure to H2O2 ([3]; negative control): no significant change in inhibitory activity

O=C(O)c1ccc(S(=O)(=O)On2c(C(=O)NCc3ccc(-c4ccccc4)cc3)cccc2=O)cc1 [PZBG-5b, 4-(((6-(([1,1′-Biphenyl]-4-ylmethyl)carbamoyl)-2-Oxopyridin-1(2H)yl)oxy)sulfonyl)benzoic acid]
pseudo-first order rate constant with an excess of H2O2 (full-length proMMPi) [1]: 1.1 M⁻¹ s⁻¹
hydrolysis in buffer alone ([2]; after 3 h): ~50%
inhibition at 0.05 µM [3, 6]: ~50%
inhibition at 0.05 µM [3, 7]: ~30%
